This note sets out measurements from ChEMBL document CHEMBL1201862, “PubChem BioAssay data set” (2004).

Active and inactive are the calls of the source. Bounds are passed on as bounds.

Series [1] can be described thus: Trypanosoma cruzi growth suppression in host cells – NIH3T3 host cells, beta-gal luminescence, confirmation (AID 2044).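 Note: intracellular parasites grown in NIH/3T3 mouse fibroblasts as host cells; luminescent beta-galactosidase reporter signal from transgenic T. cruzi replicating inside host cells; inhibitors lower the luminescence signal.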 Type of series: functional, cell-based.
The nature of series [2]: NIH3T3 cell viability loss – ATP luminescence, mouse fibroblasts, counter-screen, dose response (AID 2010).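 Note: cells exposed to compound for about 90 hours before reading.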 Type of series: functional, cell-based.
Another series concerns the target Cytochrome P450 2C19 (Homo sapiens, UniProt P33261). Description: Cytochrome panel assay with activity outcomes. Panel member name: p450-cyp2c19 Compounds with AC50 equal or less than 10 uM are considered active. The format is functional.
A short description of series [3]: luciferase reporter signal suppression in cells – H4 neuroglioma cells, luminescence, dose response (AID 1990). Type of series: functional, cell-based.
A short description of series [4]: alpha-synuclein stem-loop luciferase translation blockers – H4 neuroglioma cells, luminescence, confirmation (AID 1988). The format is functional, cell-based.
Series [5] is described as follows: Luminescence Cell-Based Dose Response HTS to Identify Inhibitors of 5'UTR Stem-Loop Driven Prion Protein mRNA Translation in H4 Neuroglioblastoma Cells. [Related pubchem assays: 1827 (Project Summary), 1813 (Primary HTS)]. The format is functional.
Series [6] addresses T1, Corticotropin-releasing factor receptor 2/Corticotropin-releasing factor-binding protein (Homo sapiens, UniProt P24387+Q13324).
T1 sequence (Q13324 whole entry): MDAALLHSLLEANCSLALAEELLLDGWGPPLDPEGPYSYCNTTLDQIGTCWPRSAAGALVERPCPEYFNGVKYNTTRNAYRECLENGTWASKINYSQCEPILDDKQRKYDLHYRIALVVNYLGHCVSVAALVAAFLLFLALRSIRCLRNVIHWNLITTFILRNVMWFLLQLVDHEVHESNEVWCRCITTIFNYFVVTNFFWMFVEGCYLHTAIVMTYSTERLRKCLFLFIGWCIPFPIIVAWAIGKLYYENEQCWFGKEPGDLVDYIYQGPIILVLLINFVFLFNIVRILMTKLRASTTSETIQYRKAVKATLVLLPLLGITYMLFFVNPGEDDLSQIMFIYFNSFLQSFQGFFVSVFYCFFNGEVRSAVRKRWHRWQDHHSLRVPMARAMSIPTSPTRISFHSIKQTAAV
T1 sequence (P24387 whole entry): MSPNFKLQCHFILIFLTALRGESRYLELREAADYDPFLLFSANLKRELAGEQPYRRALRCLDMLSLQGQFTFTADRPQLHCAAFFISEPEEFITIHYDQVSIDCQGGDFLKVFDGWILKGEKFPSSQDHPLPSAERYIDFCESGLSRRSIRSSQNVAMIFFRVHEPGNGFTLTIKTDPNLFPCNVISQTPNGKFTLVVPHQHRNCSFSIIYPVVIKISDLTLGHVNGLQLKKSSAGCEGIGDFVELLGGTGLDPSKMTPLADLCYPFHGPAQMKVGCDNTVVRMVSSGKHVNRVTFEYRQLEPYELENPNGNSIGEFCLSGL
Description: activators of CRF receptor 2 with binding protein – uHTS hits, confirmation (AID 602473). The format is functional. To be noted: read-out: EC50_Mean.

Cytochrome P450 2C19, sequence (P33261 whole entry): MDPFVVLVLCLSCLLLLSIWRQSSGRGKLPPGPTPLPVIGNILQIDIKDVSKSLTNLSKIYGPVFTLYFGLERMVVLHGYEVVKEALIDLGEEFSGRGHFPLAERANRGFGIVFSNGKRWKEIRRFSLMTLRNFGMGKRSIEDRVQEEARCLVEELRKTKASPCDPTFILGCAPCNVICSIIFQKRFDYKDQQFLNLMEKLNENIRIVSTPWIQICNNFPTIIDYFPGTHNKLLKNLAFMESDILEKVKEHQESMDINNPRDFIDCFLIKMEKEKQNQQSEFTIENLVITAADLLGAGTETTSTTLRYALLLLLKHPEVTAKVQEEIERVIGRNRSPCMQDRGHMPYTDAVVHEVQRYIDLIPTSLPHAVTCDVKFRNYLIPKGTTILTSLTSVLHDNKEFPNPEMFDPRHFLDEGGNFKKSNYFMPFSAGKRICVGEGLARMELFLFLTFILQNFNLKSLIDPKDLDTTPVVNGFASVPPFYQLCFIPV

Turning to `O=C(CCc1ccc(S(=O)(=O)NCc2ccccc2)cc1)N1CCN(Cc2ccc3c(c2)OCO3)CC1`, the EC50 was 0.897 µM (active) in series [1] and > 30 µM (not active) in series [2].
The AC50 is the concentration giving half of the maximal activity seen. On to `CN1c2ccccc2Oc2c(c(=O)n(C)c(=O)n2C)C1c1cccc([N+](=O)[O-])c1` (stereo not given), for which, on Cytochrome P450 2C19 (read-out: AC50), the AC50 was 14.1 µM (inconclusive).
As to `CC1(C)Cc2c(ccc3ccccc23)C(c2cc3ccccc3oc2=O)=N1`, the EC50 in series [3] is 11.1 µM (active); in series [4], > 120 µM (not active); in series [5], 21.5 µM (active).
For the molecule `Cc1ccc2c(c1)N1C(=O)c3ccccc3C1C1=C(O)CC(C)(C)CC1=N2` (stereo not given), the results for the EC50 in series [3], in series [4] and in series [5] were > 120 µM (not active), > 120 µM (not active) and 18.1 µM (active), respectively.
Turning to `CC(C)NC(=O)N1CCC2(CC1)CCN(S(C)(=O)=O)CC2`, the AC50 on Cytochrome P450 2C19 (read-out: AC50) is 39.8 µM (inconclusive).
Consider `Cc1onc(-c2ccccc2Cl)c1C(=O)N(Cc1ccc(N(C)C)cc1)C(C)C`, for which the EC50 in series [3] is 22.5 µM (active); in series [4], > 120 µM (not active); in series [5], > 120 µM (not active).
Turning to `Cc1c(C(=O)NCC2COc3ccccc3O2)oc2ccc(S(=O)(=O)N3CC(C)CC(C)C3)cc12` (stereo not given), the figures for the EC50 in series [1] and in series [2] were 1.79 µM (active) and > 60 µM (not active), respectively.
`COC(=O)c1sc(NC(=S)NC(=O)c2cccc(C)c2)nc1C`: in series [6], the EC50 is 9.05 µM (active).
Take `O=C(OCc1ccccc1)c1cn(-c2ccccc2)nc1-c1ccncc1`: the EC50 in series [1] is 1.14 µM (active); in series [2] it was 33.5 µM (active).
Consider `CCOc1ccc(NS(=O)(=O)c2ccc(C(=O)NCC3(N4CCCCC4)CCCCC3)cc2)cc1`, for which the EC50 in series [6] was 6.45 µM (active).
In the case of `CCN(CC)CCN(C(=O)c1ccc(S(=O)(=O)N2CCCCC2)cc1)c1nc2cc3c(cc2s1)OCO3`, the EC50 in series [1] is 0.213 µM (active); in series [2] it was > 60 µM (not active).
On to `Cc1cc(C)c(S(=O)(=O)N2CCN(c3ccc([N+](=O)[O-])c(-n4nc(C)cc4C)c3)CC2)c(C)c1`, for which the values for the EC50 in series [1] and in series [2] were 1.83 µM (active) and > 60 µM (not active), respectively.
Consider `CCC/C=C(\CCC)C(NC(=O)C(C)(C)C)c1ccc(C(=O)OC)cc1` (stereo not given), for which the AC50 at Cytochrome P450 2C19 (read-out: AC50) was 39.8 µM (inconclusive).
On to `O=c1c(-c2ccc(O)cc2)coc2cc(O)cc(O)c12` [GENISTEIN], for which, on Cytochrome P450 2C19 (read-out: AC50), the AC50 was 10 µM (inconclusive).
Regarding `Cc1ccccc1N1C(=O)NC(=O)/C(=C\c2ccc3c(c2)CCCN3Cc2ccccc2)C1=O`, the EC50 in series [6] is 14.2 µM (active).
With `CCC(NCCC1=CCCCC1)=C1C(=O)NC(=O)NC1=O`, the EC50 in series [3], in series [4] and in series [5] was > 120 µM (not active) in each case.
Take `Cc1ccc(-n2nnc(-c3nccs3)n2)cc1`: the results for the EC50 in series [3], in series [4] and in series [5] were 4.02 µM (active), 1.41 µM (active) and 0.985 µM (active), respectively.
Turning to `Cc1nn(Cc2ccccc2Cl)c(C)c1C(=O)NC1CCCc2ccccc21` (stereo not given), the EC50 in series [3] is 17.1 µM (active); in series [4], 58 µM (active); in series [5] it was 103 µM (active).
As to `CCN(Cc1ccc(O)cc1)CC1CCCN(CCc2cccc(F)c2)C1` (stereo not given), the values for the EC50 in series [1] and in series [2] were 0.69 µM (active) and 40.3 µM (active), respectively.
For the molecule `O=S(=O)(c1ccccc1)N1CCC2(CC1)OCCO2`, the EC50 was > 120 µM (not active) in series [3], > 120 µM (not active) in series [4] and 6.97 µM (active) in series [5].
`NC(S)=Nc1cccc2[nH]ccc12`: in series [2], the EC50 is > 30 µM (not active).
Turning to `Cc1ccc2sc(N3CCN(C(=O)c4ccc([N+](=O)[O-])o4)CC3)nc2c1C`, the EC50 in series [1] is 0.119 µM (active); in series [2], > 30 µM (not active).
As to `COc1ccc(-n2c(S)nnc2CNC(=O)c2cc(OC)c(OC)c(OC)c2)cc1`, the AC50 result at Cytochrome P450 2C19 is “inconclusive”.
`CCc1ccc(-c2nc(CSCC(=O)N3CCN(c4ccccn4)CC3)c(C)o2)cc1`: the EC50 in series [3] was 8.61 µM (active); in series [4], 12 µM (active); in series [5], 15 µM (active).
Consider `O=C(Nc1ccc(N2CCCCC2)cc1)c1cc([N+](=O)[O-])cc([N+](=O)[O-])c1`, for which the figures for the EC50 in series [1] and in series [2] were 0.411 µM (active) and > 60 µM (not active), respectively.
Consider `Cc1ccc(Sc2nc(-c3ccccc3)ccc2C#N)cc1`, for which the AC50 at Cytochrome P450 2C19 (read-out: AC50) is 0.631 µM (inconclusive).
For the molecule `Cc1cccc(NC(=O)CSc2nnc(C)c(=O)n2N)c1C`, the EC50 in series [3], in series [4] and in series [5] was > 120 µM (not active) in each case.
Take `CC(C)NC(=O)c1ccccc1NC(=O)/C=C/c1cccc([N+](=O)[O-])c1`: the EC50 in series [3] is 8.64 µM (active); in series [4], 9.29 µM (active); in series [5], 11.3 µM (active).
With `CCc1c(C#N)c(SCCC(=O)Nc2ccc(F)cc2)nc2c1C(=O)CC(C)(C)C2`, the EC50 was 0.996 µM (active) in series [1] and > 60 µM (not active) in series [2].
On to `O=C(O)c1ccccc1N/N=C\c1ccnc2ccccc12`, for which the EC50 in series [4] is 7.78 µM (active); in series [5] it was 11.1 µM (active).
For the molecule `NC(=NOC(=O)c1cc([N+](=O)[O-])ccc1Cl)c1cccnc1`, the EC50 in series [3], in series [4] and in series [5] was > 120 µM (not active) throughout.
`CC(=O)NCCC(=O)Nc1cc(S(=O)(=O)N2CCCCC2)ccc1N1CCN(C)CC1`: the EC50 in series [1] was 0.231 µM (active); in series [2] it was > 30 µM (not active).
As to `Cn1c(=N)n(CC(=O)c2ccc(Cl)c(Cl)c2)c2ccccc21`, the values for the EC50 in series [3], in series [4] and in series [5] were 6.07 µM (inconclusive), 9.54 µM (active) and 13.5 µM (active), respectively.
Take `CN1CCN(CC2(O)CCN(S(=O)(=O)c3ccc(Cl)cc3)CC2)CC1`: the results for the EC50 in series [1] and in series [2] were 1.11 µM (active) and > 60 µM (not active), respectively.
Taken in the same sequence, the figures for `C#CCn1/c(=N/C(=O)c2ccc(S(=O)(=O)N3CCCc4ccccc43)cc2)sc2cc(S(N)(=O)=O)ccc21` were 0.819 µM (active) and > 60 µM (not active).
For `COc1cc(CNC(=O)c2nc(Cn3nc(C)c(Br)c3C)no2)cc(OC)c1`, the EC50 in series [3] was > 120 µM (not active); in series [4], 42.7 µM (active); in series [5], > 120 µM (not active).
Turning to `CC(C)c1ccc(C(O)P(=O)(OC2CCCCC2)OC2CCCCC2)cc1` (stereo not given), the figures for the EC50 in series [3], in series [4] and in series [5] were > 120 µM (not active), > 120 µM (not active) and 19.2 µM (active), respectively.
For the molecule `COc1cc(NC(=O)CCN2CCN(C/C=C/c3ccccc3)CC2)cc(OC)c1`, the EC50 in series [1] is 0.918 µM (active); in series [2], > 60 µM (not active).
Regarding `COc1cccc(-c2nc(CS(=O)(=O)CC(=O)NCCc3ccc(C)cc3)c(C)o2)c1`, the EC50 in series [3], in series [4] and in series [5] was > 120 µM (not active) each time.
Take `COc1ccc(N(CC(=O)NN=C2CCCC2)S(=O)(=O)c2ccccc2)cc1Cl`: the EC50 in series [6] was 4.37 µM (active).
`O=C(CCCCCn1c(=S)[nH]c2ccc(N3CCOCC3)cc2c1=O)NC1CCN(Cc2ccccc2)CC1`: the EC50 in series [1] was 0.595 µM (active); in series [2] it was > 60 µM (not active).
In the case of `Nc1nc(NCCCN2CCOCC2)nc(Nc2ccccc2)c1[N+](=O)[O-]`, the figures for the EC50 in series [3], in series [4] and in series [5] were 40.7 µM (active), > 120 µM (not active) and 19 µM (active), respectively.
Regarding `Cc1ccc(C)c(NC(=O)c2ccccc2O)c1`, the EC50 in series [6] was > 53 µM (inactive).
